# In PMC10254235, “Design, Synthesis, and Anti-Cervical Cancer and Reversal of Tumor Multidrug Resistance Activity of Novel Nitrogen-Containing Heterocyclic Chalcone Derivatives” (Molecules, 2023):
# Like-named read-outs stand apart in the source and are kept apart here.
# Assays:
# HeLa cells [1] = experiment: MTT antiproliferative assay, HeLa cells; assay type: cell-based, human; conditions: Homo sapiens, 48 h
# Experimental: HeLa and SiHa cell lines were obtained from the Procell Life Science Technology Co., Ltd. (Wuhan, China); H8 cell line was obtained from the Shanghai HonSun Biological Technology Co., Ltd. (Shanghai, China); HUVEC cell line was obtained from the Saibaikang (Shanghai) Biotechnology Co., Ltd. (Shanghai, China); HeLa/DDP cell line was obtained from the Guangzhou Jenniobio Biotechnology Co., Ltd. (Guangzhou, China). HeLa, SiHa, H8, and HeLa/DDP cells were cultured in DMEM medium (HyClone). The VEGF of 50 ng/mL was used as the promoter of the VEGFR-2 receptor on HUVEC cell membrane surfaces, and their inhibitory effects on VEGFR-2 were determined. All the mediums were supplemented with 10% FBS (HyClone, GE Healthcare, Australia). Cells were maintained at subconfluency at 37 °C in humidified air containing 5% CO2. The cells were monitored daily and maintained at 80% cell density. All compounds tested were dissolved in DMSO and then diluted by the culture medium before the treatment of cultured cells. Identification reports are available for all types of cell lines involved in this study.
# The cytotoxicity of the target compounds were measured in vitro using the MTT assay. Cells grown in the logarithmic phase were counted and seeded in 96-well cell culture plates (5 × 10^3 cells per well) for 24 h to allow attachment of cells to the wall of the plate. […] Next, 20 μL of 5 mg.mL^−1 MTT solution was added to each well and cultured for 4 h. The old solution was discarded, replaced with 150 μL DMSO solution per well, and shaken for 10 min. The OD value was measured under 490 nm, and the inhibition rate was calculated. The nonlinear regression fitting of the cell growth rate was carried out using SPSS 23.0 software, and the IC50 of the compound was calculated. […] There were 6 compound holes in each group, and the experimental results were presented as the average of 3 experiments. A complete medium containing only cells was used as the blank control, whereas a complete medium without cells was the negative control group. Cisplatin and sorafenib were utilized as the positive control group, and the target compound was the experimental intervention group.
# VEGFR-2 = biological target: T1, VEGFR-2 (Homo sapiens, UniProt P35968); experiment: VEGFR-2 inhibition test (human p-VEGFR-2 ELISA in HeLa cells); assay type: cell-based; conditions: ± SD, read-out: 48h IC50 VEGFR-2 inhibitory effect
# T1 construct: endogenous in cells; host or cells: HeLa cells
# T1 sequence (P35968 20-1356): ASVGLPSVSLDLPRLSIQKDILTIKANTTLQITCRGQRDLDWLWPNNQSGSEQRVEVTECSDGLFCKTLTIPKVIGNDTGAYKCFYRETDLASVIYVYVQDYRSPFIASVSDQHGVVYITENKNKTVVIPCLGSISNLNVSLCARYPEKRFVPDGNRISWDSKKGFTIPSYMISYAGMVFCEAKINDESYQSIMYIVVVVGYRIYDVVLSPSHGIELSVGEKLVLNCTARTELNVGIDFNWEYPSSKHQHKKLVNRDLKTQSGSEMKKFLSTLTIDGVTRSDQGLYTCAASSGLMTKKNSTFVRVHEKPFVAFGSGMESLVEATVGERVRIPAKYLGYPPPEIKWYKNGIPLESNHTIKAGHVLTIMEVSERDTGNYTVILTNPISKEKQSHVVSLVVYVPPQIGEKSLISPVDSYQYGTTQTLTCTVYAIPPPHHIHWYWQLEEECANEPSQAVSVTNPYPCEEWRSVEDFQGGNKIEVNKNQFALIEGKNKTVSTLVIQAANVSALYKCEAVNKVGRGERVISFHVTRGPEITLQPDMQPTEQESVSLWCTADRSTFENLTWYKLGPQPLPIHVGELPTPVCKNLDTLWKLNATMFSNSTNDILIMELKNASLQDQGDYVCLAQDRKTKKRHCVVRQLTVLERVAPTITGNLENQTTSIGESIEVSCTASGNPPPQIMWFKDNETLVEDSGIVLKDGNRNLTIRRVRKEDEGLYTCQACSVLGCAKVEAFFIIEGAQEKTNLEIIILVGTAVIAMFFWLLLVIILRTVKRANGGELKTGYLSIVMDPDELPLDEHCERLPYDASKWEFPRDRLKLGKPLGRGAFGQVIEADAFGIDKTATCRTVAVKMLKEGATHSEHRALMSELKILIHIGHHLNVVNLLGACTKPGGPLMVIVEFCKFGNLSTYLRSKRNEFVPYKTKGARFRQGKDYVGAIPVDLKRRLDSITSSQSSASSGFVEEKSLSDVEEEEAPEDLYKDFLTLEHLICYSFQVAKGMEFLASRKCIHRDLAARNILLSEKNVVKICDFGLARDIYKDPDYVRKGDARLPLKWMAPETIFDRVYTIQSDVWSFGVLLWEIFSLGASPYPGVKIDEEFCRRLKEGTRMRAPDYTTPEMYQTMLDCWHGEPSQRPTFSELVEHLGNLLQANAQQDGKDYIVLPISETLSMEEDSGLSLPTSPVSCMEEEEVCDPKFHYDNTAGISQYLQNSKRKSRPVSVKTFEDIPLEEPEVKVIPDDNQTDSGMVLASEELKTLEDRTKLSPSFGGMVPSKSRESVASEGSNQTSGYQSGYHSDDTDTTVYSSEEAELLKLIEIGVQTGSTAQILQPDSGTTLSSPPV
# Experimental: Specimens, standards, and HRP-labeled detection antibodies were added sequentially to the pre-covered microtiter wells containing phosphorylated vascular endothelial growth factor receptor 2 (p-VEGFR2) antibodies, warmed, and washed thoroughly. The substrate TMB was added for color development. This substrate is converted to blue using peroxidase catalysis to a final yellow color due to the action of acid. […] Curve fitting was performed using SPSS 23.0 software to calculate IC50.
# HeLa cells [2] = experiment: Apoptosis analysis, Annexin V-FITC/PI flow cytometry; assay type: cell-based, human; conditions: 24 h
# Experimental: (§1) After incubation, cells were harvested and incubated using […] of Annexin-V/FITC (BD, America) in binding buffer (10 mM HEPES, 140 mM NaCl, and 2.5 mM CaCl2 at pH 7.4) at room temperature for 15 min. The PI solution was then added to the medium for another 10 min incubation. Almost 10,000 events were collected for each sample and analyzed using flow cytometry (BD, LSRFortessa, New York, NY, USA). The procedure for the remaining Western blot was the same as in Section 3.3.3.
# HeLa cells [3] = experiment: Transwell migration assay; assay type: cell-based, human; conditions: 24 h, control 1205
# Experimental: Initially, HeLa (5 × 10^4 cells) were suspended in 200 μL of an FBS-free medium. […] The lower chamber was filled with 600 μL of medium containing 10% FBS. After incubating at 37 °C for 24 h, the cells on the top side of the transwell membrane were removed with a cotton tip. The cells trapped on the bottom side of the membrane were fixed using methanol and stained using 0.1% crystal violet solution for 30 min, respectively.
# p-VEGFR-2 = experiment: Western blot, VEGFR-2 phosphorylation in HUVEC cells; assay type: cell-based, human; conditions: 24 h, 6f 2, 4, 6 μM, sorafenib 4 μM, versus blank group, p < 0.05
# p-VEGFR-2 (Y1175) = experiment: Western blot, p-VEGFR-2 in HeLa cells; assay type: cell-based, human; conditions: HeLa, 2, 4 and 6 μM, 24 h
# Experimental: (§2) Next, the protein concentrations were determined using a BCA Protein Assay Kit (Solarbio, China). An equal amount of the proteins (12 μg) were separated using 8–12% sodium dodecyl sulfate–polyacrylamide gel electrophoresis (SDS-PAGE) and transferred to nitrocellulose membranes (Amersham Biosciences, Little Chalfont, Buckinghamshire, UK). Then, the membranes were blocked with 5% nonfat dried milk in TBS containing 1% Tween-20 for 2 h at room temperature and were incubated overnight with specific primary antibodies (CST, Boston, MA, USA) at 4 °C. After three washes in TBST, the membranes were incubated with the appropriate HRP-conjugated secondary antibodies at room temperature for 2 h. The blots were developed using enhanced chemiluminescence (Biosharp, Shanghai, China) and were detected using a PE 0723 imager (ProteinSimple, Silicon Valley, CA, USA). Each experiment was performed at least in triplicate and analyzed using Image J software (V1.8.0.112). […]
# p-PI3K (Tyr458) = experiment: Western blot, p-PI3K in HeLa cells; assay type: cell-based, human; conditions: HeLa, 2, 4 and 6 μM, 24 h
# Experimental: as §2
# p-AKT (Ser473) = experiment: Western blot, p-AKT in HeLa cells; assay type: cell-based, human; conditions: HeLa, 2, 4 and 6 μM, 24 h
# Experimental: as §2
# Bax = experiment: Western blot, Bax in HeLa cells; assay type: cell-based, human; conditions: HeLa, 2, 4 and 6 μM, 24 h, versus control, p < 0.05
# Experimental: as §2
# as §1, with “The PI solution was then added to the medium for another 10 min incubation.” left out, “The procedure for the remaining Western blot was the same as in Section 3.3.3.” left out
# Bcl-2 = experiment: Western blot, Bcl-2 in HeLa cells; assay type: cell-based, human; conditions: HeLa, 2, 4 and 6 μM, 24 h, versus control, p < 0.05
# Experimental: as §2
# as §1, with “The PI solution was then added to the medium for another 10 min incubation.” left out, “The procedure for the remaining Western blot was the same as in Section 3.3.3.” left out
# P-gp = experiment: Western blot, P-gp expression in HeLa/DDP cells; assay type: cell-based, human; conditions: 0.25, 0.5 and 1 μM, p > 0.05
# Experimental: as §2
# To reduce the adverse reactions caused by the fixation of drug resistance reversal agents, the concentration that reduces the proliferation rate of tumor cells by less than 10% was selected. Therefore, the inhibitory activity of compound 6f on HeLa/DDP cells was determined in the concentration ranges of 0.25, 0.5, and 1 μM combined with cisplatin. […]
smiles,measurement,setting,value
"COc1cc(O)c(C(=O)/C=C/c2ccc(CN3CCC(C)CC3)cc2)cc1CN1CCC(O)CC1 [6f, (E)-1-(2-hydroxy-5-((4-hydroxypiperidin-1-yl)methyl)-4-methoxyphenyl)-3-(4-((4-methylpiperidin-1-yl)methyl)phenyl)prop-2-en-1-one]",IC50,"HeLa cells [1]; MTT, mean ± SD, read-out: 48h IC50 HeLa",6.52 ± 0.42 µM
same,IC50,"HeLa cells [1]; single agent, read-out: 48h IC50 HeLa (Table 4)",6.52 ± 0.42 µM
same,IC50,VEGFR-2,0.75 ± 0.05 µM
same,proapoptotic rate,HeLa cells [2]; 2 μM,13.4%
same,proapoptotic rate,HeLa cells [2]; 4 μM,20.7%
same,proapoptotic rate,HeLa cells [2]; 6 μM,34.6%
same,number of migrating cells,HeLa cells [3]; 2 μM,372
same,number of migrating cells,HeLa cells [3]; 4 μM,132
same,number of migrating cells,HeLa cells [3]; 6 μM,71
same,phosphorylation of VEGFR-2 in HUVEC cells (Western blot),p-VEGFR-2,significantly inhibited the phosphorylation of VEGFR-2
same,p-VEGFR-2 (Y1175) in HeLa cells (Western blot),p-VEGFR-2 (Y1175),effective downregulation
same,p-PI3K (Tyr458) in HeLa cells (Western blot),p-PI3K (Tyr458),effective downregulation
same,p-AKT (Ser473) in HeLa cells (Western blot),p-AKT (Ser473),effective downregulation
same,expression of Bax (Western blot),Bax,significantly upregulated the expression of Bax
same,expression of Bcl-2 (Western blot),Bcl-2,significantly downregulating the expression of Bcl-2
same,P-gp expression in HeLa/DDP cells (Western blot),P-gp,did not exhibit a significant variance in P-gp expression
